The source of these data is patent publication US20240199677A1, “GLYCOSYLTRANSFERASE INHIBITORS” (CALIFORNIA INSTITUTE OF TECHNOLOGY, priority 2018, published 2024).

For one series, the system named is C. difficile ATCC43596. Briefly: Minimum inhibitory concentration assay. The conditions noted are these: for C. difficile ATCC43596 MIC: 48 h, 37° C.; for MIC: Clostridioides difficile, ATCC43596, 48 h, read-out: C. difficile ATCC43596 MIC.
In a further series the test system is MraY. The conditions noted are these: read-out: MraY inhibition IC50.
The subject of a further series is C. difficile spores. Briefly: Spore viability testing. To be noted: for Inhibition of spore germination: x5 MIC; for Effect on viability of C. difficile spores (CFU): x2 MIC, 24 hours. The class given is cell-based.
Series [1] relates to AsPc-1 cells. Briefly: Synergistic assay (checkerboard), 11 and Gemcitabine. The class given is cell-based. The protocol:
(§1) The FIC index was calculated according to the following equation. ΣFIC=FICA+FICB=CA/MICA+CB/MICB where MICA and MICB are MIC of drugs A and B, CA and CB are the concentrations of drugs A and B used in combination. In these interaction studies, ΣFIC of less than 0.5 represents synergistic activity.
These experiments were performed in the same manner as those of Example 7.

Series [2] relates to AsPc-1 cells. Briefly: Synergistic assay (checkerboard), 11 and Paclitaxel. It counts as cell-based. The protocol:
as §1

Series [3] can be described thus: Cytotoxicity MTT assay, Vero cells. It counts as cell-based, monkey. To be noted: monkey. The protocol: (§2) Cytotoxicity Assays. Cytotoxicity assays were performed using Vero monkey kidney (ATCC CCL-81) and HepG2 human hepatoblastoma cell (ATCC HB-8065) lines. Vero or HepG2 cells were cultured in 75 cm^2 flasks and transferred to 96-well cell culture plates using ATCC-formulated Eagle's minimum essential medium containing 10% FBS, penicillin, and streptomycin. Serially diluted aliquots of each test compound at concentrations ranging from 0.78-200 μg/mL were added to the cells. […] The plates were incubated and cytotoxic effects were determined via the MTT assay.
(§3) Selected molecules were tested for cytotoxicity (IC50) in cancer and healthy cells via a MTT colorimetric assay.
(§4) Cytotoxicity Assays. For Vero cells: Vero cell was cultured in Complete eagle's minimum essential growth medium (EMEM) containing L-glutamine, sodium pyruvate, minimum essential amino acids, penicillin-streptomycin and 10% fetal bovine serum. Inoculating number of cells were 400,000 cells/mL and a final 40,000 cells/well. After 72 h of exposure of molecules to this cell line at concentrations ranging from 0.78 to 200 μg/mL, the culture medium was changed to complete EMEM without phenol red before addition of yellow tetrazolium dye; MTT. Viability was assessed on the basis of cellular conversion of MTT into a purple formazan product. The absorbance of the colored formazan product was measured at 570 nm by BioTek Synergy HT Spectrophotometer. Linearity of the MTT response to the cell number was determined.

For a further series, the system named is Panc-1. Briefly: Cytotoxicity MTT assay, Panc-1. The class given is cell-based. The protocol: as §3
(§5) Each cell was cultured in recommended medium by ATCC, and the IC50 data were obtained with each cell line.

The next series relates to AsPc-1. Briefly: Cytotoxicity MTT assay, AsPc-1. The class given is cell-based. The protocol:
as §3, §5

The test system of the next series is SK-OV-3. Briefly: Cytotoxicity MTT assay, SK-OV-3. The class given is cell-based. The protocol:
as §3, §5

The test system of the next series is MDA-MB-435S. Briefly: Cytotoxicity MTT assay, MDA-MB-435S. It counts as cell-based. The protocol: as §3, §5
The test system of the next series is KB. Briefly: Cytotoxicity MTT assay, KB. It counts as cell-based. The protocol:
as §3, §5

The test system of another series is HPAF-II. Briefly: Cytotoxicity MTT assay, HPAF-II. The class given is cell-based. The protocol: as §3, §5
In another series the test system is L12210. Briefly: Cytotoxicity MTT assay, L12210. It counts as cell-based. The protocol: as §3, §5
For a further series, the system named is LoVo. Briefly: Cytotoxicity MTT assay, LoVo. It counts as cell-based. The protocol: as §3, §5
For a further series, the system named is Vero cells. Briefly: Cytotoxicity MTT assay, Vero cells. It counts as cell-based, monkey. The protocol: as §2, §3, §4
A further series concerns HepG2. Briefly: Cytotoxicity MTT assay, HepG2. It counts as cell-based. To be noted: human.
For the next series, the system named is Caco-2. Briefly: Cytotoxicity MTT assay, Caco-2. The class given is cell-based. The conditions noted are these: human. The protocol:
as §3, §5

The next series has as its target M. jannaschii AgIH (Methanocaldococcus jannaschii (strain ATCC 43067 / DSM 2661 / JAL-1 / JCM 10045 / NBRC 100440) (Methanococcus jannaschii), UniProt Q58513). The conditions noted are these: read-out: AgIH inhibition IC50, M. jannaschii AgIH.
The next series can be described thus: Hemolysis, sheep blood. The conditions noted are these: sheep, sheep blood. The class given is cell-based.

≈ marks a conversion by molar mass, not a printed value. Read-outs that look alike come from different tables or passages of the source. Where only a bound is given, the exact number is not on record here.

Chain of M. jannaschii AgIH (Q58513 whole entry, looked up): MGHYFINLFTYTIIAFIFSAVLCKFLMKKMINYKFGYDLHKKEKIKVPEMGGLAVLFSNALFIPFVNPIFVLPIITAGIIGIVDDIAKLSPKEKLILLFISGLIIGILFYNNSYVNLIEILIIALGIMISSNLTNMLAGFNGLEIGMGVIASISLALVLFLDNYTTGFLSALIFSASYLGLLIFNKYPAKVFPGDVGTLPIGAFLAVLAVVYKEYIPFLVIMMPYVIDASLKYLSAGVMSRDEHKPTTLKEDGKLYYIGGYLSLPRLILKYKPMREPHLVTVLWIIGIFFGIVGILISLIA

In the case of `CN(CCCN)[C@H](C(=O)O)[C@H](O[C@@H]1O[C@H](CN)[C@@H](O)[C@H]1O)[C@H]1O[C@@H](n2ccc(=O)[nH]c2=O)[C@H](O)[C@@H]1O` [FR-900493 (1), FR-900493, reference compound], the “C. difficile ATCC43596 MIC” value in the series on C. difficile ATCC43596 is above 50 µg/mL. The half-maximal inhibitory concentration (IC50) with MraY was 25 µM.
For `Cc1ncc([N+](=O)[O-])n1CCO` [metronidazole, reference compound], in the series with C. difficile spores, the “Inhibition of spore germination” value is on record as “did not inhibit the spore germination”.
For `CN[C@H](CC(C)C)C(=O)N[C@H]1C(=O)N[C@@H](CC(N)=O)C(=O)N[C@H]2C(=O)N[C@H]3C(=O)N[C@H](C(=O)N[C@H](C(=O)O)c4cc(O)cc(O)c4-c4cc3ccc4O)[C@H](O)c3ccc(c(Cl)c3)Oc3cc2cc(c3O[C@@H]2O[C@H](CO)[C@@H](O)[C@H](O)[C@H]2O[C@H]2C[C@](C)(N)[C@H](O)[C@H](C)O2)Oc2ccc(cc2Cl)[C@H]1O` [vancomycin, reference compound], in the series on C. difficile ATCC43596, the MIC was determined as 2.5 µg/mL (≈ 1.73 µM). Further, the “Inhibition of spore germination” value in the series with C. difficile spores is “did not inhibit the spore germination”.
For `Nc1ccn([C@@H]2O[C@H](CO)[C@@H](O)C2(F)F)c(=O)n1` [Gemcitabine, reference compound], in the series with AsPc-1 cells [1] (Homo sapiens, ASPC1, Gemcitabine alone, AsPc-1 cells, read-out: IC50 B), the IC50 is 390 nM. The “Concentration in combination resulting in AsPc-1 cell death” value with AsPc-1 cells [1] (as low as, 11 together with Gemcitabine) was 0.977 µM.
In the case of `CC(=O)O[C@H]1C(=O)[C@@]2(C)[C@H]([C@H](OC(=O)c3ccccc3)[C@]3(O)C[C@H](OC(=O)[C@H](O)[C@@H](NC(=O)c4ccccc4)c4ccccc4)C(C)=C1C3(C)C)[C@]1(OC(C)=O)CO[C@@H]1C[C@@H]2O` [Taxol, Paclitaxel], the half-inhibitory concentration (IC50) with AsPc-1 cells [2] (Homo sapiens, ASPC1, Paclitaxel alone, AsPc-1 cells, read-out: IC50 B) is 550 nM; in the series with Panc-1 (Homo sapiens, PANC-1, read-out: Cytotoxicity IC50 Panc-1), 20 nM; in the series on AsPc-1 (Homo sapiens, ASPC1, read-out: Cytotoxicity IC50 AsPc-1), 190 nM; in the series with SK-OV-3 (Homo sapiens, SK-OV-3, read-out: Cytotoxicity IC50 SK-OV-3), 1080 nM; in the series on MDA-MB-435S (Homo sapiens, MDA-MB-435S, read-out: Cytotoxicity IC50 MDA-MB-435S), 110 nM; in the series on KB (Homo sapiens, KB, read-out: Cytotoxicity IC50 KB), 790 nM. In addition, the IC50 in the series on HPAF-II (Homo sapiens, HPAF-II, read-out: Cytotoxicity IC50 HPAF-II) is 20 nM; in the series with L12210 (read-out: Cytotoxicity IC50 L12210), 550 nM; in the series on LoVo (Homo sapiens, LoVo, read-out: Cytotoxicity IC50 LoVo), 57 nM. The “Taxol concentration to kill AsPc-1 cells when combined with 11” value with AsPc-1 cells [2] (as low as, combined with 11) came out at 7 nM. Moreover, in series [3], the IC50 at 72 h is 190 nM.
Consider Tunicamycin, for which the IC50 in the series with Vero cells (Table 2, read-out: Vero cells IC50) was determined as 120 nM; in the series on Vero cells (Table 3, 72 h exposure, read-out: Cytotoxicity IC50 Vero), 120 nM; in the series with Panc-1 (human), 625 nM; in the series with HepG2, 190 nM; with AsPc-1 (human), 460 nM; in the series on SK-OV-3 (human), 1850 nM. The IC50 with Caco-2 was 950 nM; with MDA-MB-435S (human) it was 900 nM; with KB (human) it was 2500 nM; in the series on HPAF-II (human), below 98 nM; in the series with L12210 (mouse), 1700 nM; with LoVo (human), 1700 nM. For the same compound, at M. jannaschii AgIH, the IC50 was 13.3 µM. Moreover, the “C. difficile ATCC43596 MIC” value with C. difficile ATCC43596 was above 50 µg/mL.
On to `CCCCCCCc1ccc(NC(=O)CCCN(C)[C@H](C(N)=O)[C@H](OC2O[C@H](CN)[C@@H](O)[C@H]2O)[C@H]2O[C@@H](n3ccc(=O)[nH]c3=O)C(O)[C@H]2O)cc1` (stereo partly drawn) [Compound 9], for which, in the series on C. difficile ATCC43596, the Anti-C. difficile activity entry is given as “display anti-C. difficile activity” and the MIC is 25 µg/mL (≈ 34.7 µM). Further, in the series with C. difficile spores, the “Effect on viability of C. difficile spores (CFU)” value is “caused loss of viability of C. difficile spores”.
With `CN(CCCC(=O)NCc1ccc(N2CCC(Oc3ccc(C(F)(F)F)cc3)CC2)cc1)[C@H](C(N)=O)[C@H](O[C@@H]1O[C@H](CN)[C@@H](O)[C@H]1O)[C@H]1O[C@@H](n2ccc(=O)[nH]c2=O)[C@H](O)C1O` (stereo partly drawn) [Compound 12], in the series on C. difficile ATCC43596, the Anti-C. difficile activity entry was “display anti-C. difficile activity” and the MIC was 50 µg/mL (≈ 56.8 µM).
As to `CC(=O)NC[C@H]1CN(c2ccc(N3CCOCC3)c(F)c2)C(=O)O1` [linezolid, reference compound], the “Inhibition of spore germination” value with C. difficile spores is on record as “did not inhibit the spore germination”.
Consider `CCCCCCCc1ccc(NC(=O)CCCN[C@H](C(N)=O)[C@H](OC2O[C@H](CN)[C@@H](O)[C@H]2O)[C@H]2O[C@@H](n3ccc(=O)[nH]c3=O)C(O)[C@H]2O)cc1` (stereo partly drawn) [Compound 10], for which the IC50 was 7080 nM with Vero cells (Primates, Vero, Table 2, read-out: Vero cells IC50) and 70 µM in the series “Hemolysis, sheep blood”. Also, the Anti-C. difficile activity result in the series on C. difficile ATCC43596 is given as “display anti-C. difficile activity”. Moreover, in the series on C. difficile spores, the “Effect on viability of C. difficile spores (CFU)” value was “caused loss of viability of C. difficile spores”.
